Data from patent publication USRE46792E1, “Oxazole compound and pharmaceutical composition” (Otsuka Pharmaceutical Co., Ltd., priority 2005, dated 2018).

Target: human PDE4D3 (PDE4D) (Homo sapiens (Human), UniProt Q08499)
Assay: Phosphodiesterase (PDE)4 inhibitory activity evaluation test ([3H]cAMP hydrolysis by PDE4D enzyme solution)
Type: biochemical
Conditions: recombinant human PDE4D3 expressed in COS-7 cells; [3H]cAMP substrate; 10 min at 30° C.; 2% DMSO
From the text: Phosphodiesterase (PDE)4 Inhibitory Activity Evaluation Test
(1) Large Scale Plasmid Preparation
Plasmid containing genes (HPDE4D) coding for human PDE4D3 cDNA (stored in Otsuka America Pharmaceutical, Inc., Maryland Research Laboratories) was transformed in E. coli, cultured on a large scale, and purified using an EndoFree™ Plasmid Maxi Kit (Qiagen).
(2) Abundant Expression and Purification of PDE4D
COS-7 cells derived from African green monkey kidneys were passage cultured in D-MEM media containing 100 units/ml penicillin, 100 μg/ml streptomycin, and 10% FBS. The cells were transfected with the plasmid prepared in (1) above using Lipofectamine™ 2000 (hereinafter referred to as “LF2000”, Invitrogen), following the manufacturer's protocol. The COS-7 cells were inoculated in a 10 cm culture dish on the previous day so as to be 90% confluent on the day of transfection. Culture dishes each containing a plasmid solution (solution A) in which 24 μg of plasmid was diluted in 1.5 ml Opti-MEM I Reduced Serum Medium (Invitrogen) and an LF2000 solution (solution B) in which 60 μl of LF2000 was diluted in 1.5 ml Opti-MEM I Reduced Serum Medium were separately allowed to stand for 5 minutes at room temperature. Solutions A and B were then mixed and the mixture was allowed to stand for 20 minutes at room temperature. The mixture was added to the cultured cells, and incubated at 37° C. (5% CO2) overnight. On the following day, the medium was replaced, and the mixture was further incubated overnight to harvest the cells in the following manner. The cells were washed with PBS (Sigma) once, and 10 ml of a Trypsin-EDTA solution (Sigma) was added to each culture dish. After the solution was distributed to each of the culture dishes, the cells were detached, and the dishes were allowed to stand for about 5 minutes at 37° C. The detached cells from the dishes were suspended in media, collected into centrifuge tubes, and centrifuged at 1200 rpm for 5 minutes at 4° C., and supernatants were removed. The cells were further washed with PBS, and stored at −80° C. KHEM buffer (100 mM Hepes, 50 mM KCl, 10 mM EGTA, 1.92 mM MgCl2, pH 7.4) containing 1 mM DTT, 1 μg/ml antipain, 1 μg/ml aprotinin, 1 μg/ml leupeptin, 1 μg/ml pepstatin A, 157 μg/ml benzamidine, and 120 μg/ml Pefabloc SC was added to the stored cells, and the contents were moved to a glass homogenizer to be homogenized on ice. The cell suspension was centrifuged at 1000 rpm for 5 minutes at 4° C., and the supernatant was further centrifuged at 14000 rpm for one hour. After centrifugation, the supernatant was dispensed into new tubes as PDE4D enzyme solutions, and stored in a deep freezer.
(3) Determination on Dilution Ratio of PDE4D Enzyme Solutions
The PDE4D enzyme solutions prepared in (2) above were dissolved in 20 mM Tris-HCl solution (pH 7.4) to give 10-, 25-, 50-, 100-, 200-, 400-, and 800-fold dilutions of the enzyme solutions. PDE4D activities were measured according to (4) below. The percentage of catalyzed cAMP to total cAMP was calculated, and such a dilution, in which the percentage was between 10% and 30%, was adopted in the inhibitory study below.
(4) Measurement of PDE4D Inhibitory Activity
Necessary amounts of test compounds were weighed, and 100% dimethylsulfoxide (DMSO) was added thereto to adjust the concentration to 10 mM. The solutions were stored in a freezer as stock solutions of each test compound. After being thawed when required, the solutions were diluted 20-fold with 100% DMSO to give a 500 μM concentration. Further, 10-fold serial dilutions were made with 100% DMSO to prepare test compounds of different concentrations. 2 μl of solutions containing one of each of the test compound were separately added into 1.2 ml tubes in which 23 μl of 20 mM Tris-HCl (pH 7.4) had been placed beforehand. […]

human PDE4D3 (PDE4D), sequence (Q08499 other isoform, or with tags, fused parts or gaps): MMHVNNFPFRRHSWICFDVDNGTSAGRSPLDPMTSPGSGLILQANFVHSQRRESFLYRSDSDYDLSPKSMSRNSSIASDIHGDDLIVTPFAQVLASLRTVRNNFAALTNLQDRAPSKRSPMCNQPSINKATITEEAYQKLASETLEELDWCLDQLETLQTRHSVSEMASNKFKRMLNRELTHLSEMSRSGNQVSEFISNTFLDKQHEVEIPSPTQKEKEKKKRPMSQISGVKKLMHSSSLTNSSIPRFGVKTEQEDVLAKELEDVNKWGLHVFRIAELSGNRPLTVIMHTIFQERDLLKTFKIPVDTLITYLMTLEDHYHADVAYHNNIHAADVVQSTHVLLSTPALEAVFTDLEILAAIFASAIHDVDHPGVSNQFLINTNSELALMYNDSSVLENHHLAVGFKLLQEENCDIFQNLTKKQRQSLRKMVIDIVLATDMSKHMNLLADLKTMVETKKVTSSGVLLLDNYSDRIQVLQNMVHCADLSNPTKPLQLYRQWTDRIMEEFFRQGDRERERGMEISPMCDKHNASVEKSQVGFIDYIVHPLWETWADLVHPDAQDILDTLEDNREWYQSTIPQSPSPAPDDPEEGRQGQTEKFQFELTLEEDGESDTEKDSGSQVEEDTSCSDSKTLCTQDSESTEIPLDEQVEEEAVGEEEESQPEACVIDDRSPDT

SMILES	IC50 [nM]
CCC(CC)Oc1cc(-c2nc(CCC(=O)c3ncccc3C)co2)ccc1OC [Example 312, 3-{2-[3-(1-ethylpropoxy)-4-methoxyphenyl]oxazol-4-yl}-1-(3-methylpyridin-2-yl)propan-1-one]	< 50
CCOc1ccccc1C(=O)CCc1coc(-c2ccc(OC)c(OCC(F)F)c2)n1 [Example 314, 3-{2-[3-(2,2-difluoroethoxy)-4-methoxyphenyl]oxazol-4-yl}-1-(2-ethoxyphenyl)propan-1-one]	< 50
CCOc1ccccc1C(=O)CCc1coc(-c2ccc(OC)c(OCCF)c2)n1 [Example 315, 1-(2-ethoxyphenyl)-3-{2-[3-(2-fluoroethoxy)-4-methoxyphenyl]oxazol-4-yl}propan-1-one]	< 50
CCOc1ccc(-c2nc(CCC(=O)c3ncccc3C)co2)cc1OCC(F)F [Example 318, 3-{2-[3-(2,2-difluoroethoxy)-4-ethoxyphenyl]oxazol-4-yl}-1-(3-methylpyridin-2-yl)-propan-1-one]	< 50
CCC(CC)Oc1cc(-c2nc(CNC(=O)c3ncccc3C)co2)ccc1OC [Example 324, N-{2-[3-(1-ethylpropoxy)-4-methoxyphenyl]oxazol-4-ylmethyl}-3-methylpicolinamide]	< 50
Cc1cccnc1C(=O)CCc1coc(-c2ccc(OC(F)F)c(OCC3CC3)c2)n1 [Example 328, 3-[2-(3-cyclopropylmethoxy-4-difluoromethoxyphenyl)oxazol-4-yl]-1-(3-methylpyridin-2-yl)propan-1-one]	< 50
CCCOc1cc(-c2nc(CCC(=O)c3ncccc3C)co2)ccc1OC(F)F [Example 329, 3-[2-(4-difluoromethoxy-3-propoxyphenyl)oxazol-4-yl]-1-(3-methylpyridin-2-yl)propan-1-one]	< 50
C=CCOc1cc(-c2nc(CCC(=O)c3ncccc3C)co2)ccc1OC(F)F [Example 330, 3-[2-(3-allyloxy-4-difluoromethoxyphenyl)oxazol-4-yl]-1-(3-methylpyridin-2-yl)propan-1-one]	< 50
C=CCCOc1cc(-c2nc(CCC(=O)c3ncccc3C)co2)ccc1OC(F)F [Example 331, 3-[2-(3-but-3-enyloxy-4-difluoromethoxyphenyl)-oxazol-4-yl]-1-(3-methylpyridin-2-yl)propan-1-one]	< 50
Cc1cccnc1C(=O)CCc1coc(-c2ccc(OC(F)F)c(OC(C)C)c2)n1 [Example 332, 3-[2-(4-difluoromethoxy-3-isopropoxyphenyl)oxazol-4-yl]-1-(3-methylpyridin-2-yl)propan-1-one]	< 50
CCOc1cc(-c2nc(CCC(=O)c3ncccc3C)co2)ccc1OC(F)F [Example 333, 3-[2-(4-difluoromethoxy-3-ethoxyphenyl)oxazol-4-yl]-1-(3-methylpyridin-2-yl)propan-1-one]	< 50
CCOc1cc(-c2nc(CCC(=O)c3ccccc3OCC)co2)ccc1OC(F)F [Example 334, 3-[2-(4-difluoromethoxy-3-ethoxyphenyl)oxazol-4-yl]-1-(2-ethoxyphenyl)propan-1-one]	< 50
C=CCOc1cc(-c2nc(CCC(=O)c3ccccc3OCC)co2)ccc1OC(F)F [Example 335, 3-[2-(3-allyloxy-4-difluoromethoxyphenyl)oxazol-4-yl]-1-(2-ethoxyphenyl)propan-1-one]	< 50
CCOc1ccccc1C(=O)CCc1coc(-c2ccc(OC(F)F)c(OCC3CC3)c2)n1 [Example 336, 3-[2-(3-cyclopropylmethoxy-4-difluoromethoxyphenyl)oxazol-4-yl]-1-(2-ethoxyphenyl)propan-1-one]	< 50
C=CCCOc1cc(-c2nc(CCC(=O)c3ccccc3OCC)co2)ccc1OC(F)F [Example 337, 3-[2-(3-but-3-enyloxy-4-difluoromethoxyphenyl)oxazol-4-yl]-1-(2-ethoxyphenyl)propan-1-one]	< 50
CCOc1cc(-c2nc(CNC(=O)c3ncccc3C)co2)ccc1OC(F)F [Example 338, N-[2-(4-difluoromethoxy-3-ethoxyphenyl)-oxazol-4-ylmethyl]-3-methylpicolinamide]	< 50
C=CCOc1cc(-c2nc(CNC(=O)c3ncccc3C)co2)ccc1OC(F)F [Example 339, N-[2-(3-allyloxy-4-difluoromethoxyphenyl)oxazol-4-ylmethyl]-3-methylpicolinamide]	< 50
CCCOc1cc(-c2nc(CNC(=O)c3ncccc3C)co2)ccc1OC(F)F [Example 340, N-[2-(4-difluoromethoxy-3-propoxyphenyl)oxazol-4-ylmethyl]-3-methylpicolinamide]	< 50
Cc1cccnc1C(=O)NCc1coc(-c2ccc(OC(F)F)c(OC(C)C)c2)n1 [Example 341, N-[2-(4-difluoromethoxy-3-isopropoxyphenyl)oxazol-4-ylmethyl]-3-methylpicolinamide]	< 50
CCC(CC)Oc1cc(-c2nc(CNC(=O)c3ncccc3C)co2)ccc1OC(F)F [Example 342, N-{2-[4-difluoromethoxy-3-(1-ethylpropoxy)phenyl]oxazol-4-ylmethyl}-3-methylpicolinamide]	< 50
C=CCCOc1cc(-c2nc(CNC(=O)c3ncccc3C)co2)ccc1OC(F)F [Example 343, N-[2-(3-but-3-enyloxy-4-difluoromethoxyphenyl)oxazol-4-ylmethyl]-3-methylpicolinamide]	< 50
Cc1cccnc1C(=O)NCc1coc(-c2ccc(OC(F)F)c(OCC(C)C)c2)n1 [Example 344, N-[2-(4-difluoromethoxy-3-isobutoxyphenyl)oxazol-4-ylmethyl]-3-methylpicolinamide]	< 50
Cc1cccnc1C(=O)NCc1coc(-c2ccc(OC(F)F)c(OCC3CCC3)c2)n1 [Example 345, N-[2-(3-cyclobutylmethoxy-4-difluoromethoxyphenyl)oxazol-4-ylmethyl]-3-methyl picolinamide]	< 50
CCOc1ccccc1C(=O)NCc1coc(-c2ccc(OC(F)F)c(OCC(C)C)c2)n1 [Example 348, N-[2-(4-difluoromethoxy-3-isobutoxyphenyl)oxazol-4-ylmethyl]-2-ethoxybenzamide]	< 50
CCOc1cc(-c2nc(CNC(=O)c3ccccc3OCC)co2)ccc1OC(F)F [Example 349, N-[2-(4-difluoromethoxy-3-ethoxyphenyl)oxazol-4-ylmethyl]-2-ethoxybenzamide]	< 50
CCCOc1cc(-c2nc(CNC(=O)c3ccccc3OCC)co2)ccc1OC(F)F [Example 350, N-[2-(4-difluoromethoxy-3-propoxyphenyl)oxazol-4-ylmethyl]-2-ethoxybenzamide]	< 50
C=CCOc1cc(-c2nc(CNC(=O)c3ccccc3OCC)co2)ccc1OC(F)F [Example 351, N-[2-(3-allyloxy-4-difluoromethoxyphenyl)oxazol-4-ylmethyl]-2-ethoxybenzamide]	< 50
CCOc1ccccc1C(=O)NCc1coc(-c2ccc(OC(F)F)c(OC(C)C)c2)n1 [Example 352, N-[2-(4-difluoromethoxy-3-isopropoxyphenyl)oxazol-4-ylmethyl]-2-ethoxybenzamide]	< 50
CCOc1ccccc1C(=O)NCc1coc(-c2ccc(OC(F)F)c(OCC3CC3)c2)n1 [Example 353, N-[2-(3-cyclopropylmethoxy-4-difluoromethoxyphenyl)oxazol-4-ylmethyl]-2-ethoxy benzamide]	< 50
